Source: patent EP0640600A1, “Heterocyclylbenzoheterocycles” (BAYER AG, priority 1993, dated 1995)

Legend:
Unkräuter = experiment: Post-emergence test, herbicidal action on weeds; assay type: in vivo; details: test plants 5 - 15 cm high sprayed, damage rated after three weeks vs untreated control, application rate not given
Description: (§1) Lösungsmittel: 5 Gewichtsteile Aceton Emulgator: 1 Gewichtsteil Alkylarylpolyglykolether Zur Herstellung einer zweckmäßigen Wirkstoffzubereitung vermischt man 1 Gewichtsteil Wirkstoff mit der angegebenen Menge Lösungsmittel, gibt die angegebene Menge Emulgator zu und verdünnt das Konzentrat mit Wasser auf die gewünschte Konzentration.
(§2) Mit der Wirkstoffzubereitung spritzt man Testpflanzen, welche eine Höhe von 5 - 15 cm haben so, daß die jeweils gewünschten Wirkstoffmengen pro Flächeneinheit ausgebracht werden. Nach drei Wochen wird der Schädigungsgrad der Pflanzen bonitiert in % Schädigung im Vergleich zur Entwicklung der unbehandelten Kontrolle.

[1] = system: Kulturpflanzen, wie z.B. Weizen und Soja; details: in vivo
Description: as §1, §2

Verträglichkeit gegenüber Kulturpflanzen, wie z.B. Weizen und Soja [1]: teilweise guter Verträglichkeit
SMILES: CCCN1C(=O)COc2cc(F)c(-n3c(=O)nc(OCC)n(C)c3=O)cc21 [Beispiel 2, 3-(7-Fluor-3-oxo-4-propyl-1,4-benzoxazin-6-yl)-6-ethoxy-1-methyl-(1H,3H)-1,3,5-triazin-2,4-dion]
Wirkung gegen Unkräuter (Unkräuter): starke Wirkung
